Measured values reported in the METLIN SMRT retention time set (Domingo-Almenara et al. 2019).

Assay: gradient 5% acetonitrile 3 min, to 50% in 2 min, to 85% in 15 min, held 3 min, 100 µL/min
Details: column: Zorbax Extend-C18 2.1 x 50 mm; eluents: water / acetonitrile, 0.1% formic acid
Procedure, shortened: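 Over 3 months, pure standards in mixtures of ~100 molecules were run by HPLC coupled to a quadrupole time-of-flight mass spectrometer in positive and negative ionization mode. The column was a Zorbax Extend-C18 (2.1 × 50 mm, 1.8 μm) at 100 μL/min, eluted with water and acetonitrile each holding 0.1% formic acid, with 40 μL dead and 900 μL dwell volumes. Retention time was determined from adduct peaks chosen by software and checked manually.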

| Compound | RP-LC retention time [s] |
| --- | --- |
| CCOCCCNC(=O)C1(C)Cn2c(ccc2-c2ccco2)C(=O)N1c1ccc(OC)cc1 (stereo not given) | 791 |
| OC(CN1CCNCC1)Cn1c2ccc(Br)cc2c2cc(Br)ccc21 (stereo not given) | 732 |
| Cn1c(C(=O)NC2CCCCCC2)cc2sccc21 | 1020 |
| CCOC(=O)c1c(C)[nH]c(C(=O)N2CCC(CC(=O)N3CCN(c4ccccc4)CC3)CC2)c1C | 836 |
| CC(C)CNC(=O)C1Cn2cccc2C(=O)N1 (stereo not given) | 651 |
| CCOC(=O)c1cccc(Nc2c(-c3ccccc3)nc3cnccn23)c1 | 875 |
| COC1CCC12CCN(C(=O)c1c(C)noc1C)CC2 (stereo not given) | 716 |
| Cc1sc(NC(=O)c2cccs2)nc1-c1ccc2c(c1)N(C)C(=O)CO2 | 942 |
| Cc1ccccc1CNC(=O)CCc1c(-c2ccc(Br)cc2)nc2ccccn12 | 722 |
| CCOc1ccc(-c2[nH]ncc2CNS(=O)(=O)Cc2ccc(C)c(C)c2)cc1 | 896 |
| CCn1cnc(S(=O)(=O)N2CCCC(C(=O)NCc3ccc(C)cc3)C2)c1 (stereo not given) | 803 |
| CCN(CC)c1ccc(NC(=O)CSc2ccc(N3CCCC(C(=O)NC4CC4)C3)nn2)c(C)c1 (stereo not given) | 529 |
| CCNC(=O)Cc1nnc(-c2ccc(C)cc2)o1 | 664 |
| O=C1NC(C(=O)NCC2CCCCC2)Cn2cccc21 (stereo not given) | 681 |
| COc1ccc(-c2cc(=O)c3c(O)c(OC)c(OC)cc3o2)cc1O | 906 |
| COCCNC(=O)c1nc(-c2ccnc(N3CCCCCC3)c2)no1 | 602 |
| CCC1CN(C(=O)N2CCC(C(=O)NCCCN3CCOCC3)CC2)c2cc(C)ccc2O1 (stereo not given) | 648 |
| CS(=O)(=O)N(C1CCOCC1)C1CN(C(=O)c2cc3ccccc3[nH]2)C1 | 685 |
| Cc1c(F)cccc1NC(=O)N(C)CC1CCOC1 (stereo not given) | 745 |
| O=C(C1CCN(S(=O)(=O)c2ccc(-c3noc(/C=C/c4cccs4)n3)cc2)CC1)N1CCCC1 | 1050 |
| COc1ccc(-c2noc(Cc3nnc(-c4cccc(F)c4)o3)n2)cc1OC | 914 |
| O=C(COc1cccc(C(F)(F)F)c1)Nc1cc(N2CCOCC2)ncn1 | 775 |
| COc1ccccc1C(=O)NC1CCN(c2cc(-c3ccccc3)[nH]n2)C1 (stereo not given) | 718 |
| Cc1ccc(NC(=O)C(=O)c2ccc[nH]2)cc1F | 917 |
| O=C(c1cc(C2CC2)[nH]n1)N1CCC(F)(F)C(COCC2CC2)C1 (stereo not given) | 805 |
| NS(=O)(=O)c1ccc(NC(=O)c2ccc(S(=O)(=O)c3ccc(Cl)cc3)s2)cc1 | 877 |
| COc1ccccc1C(=O)N1CC(Oc2cccc(-c3nc(-c4ccccc4)no3)c2)C1 | 1130 |
| COc1cc2c(cc1OC)C(C(=O)NCCN1CCOCC1)C(c1cccs1)N(C)C2=O (stereo not given) | 604 |

| Compound | RP-LC retention time [s] |
| --- | --- |
| O=C(O)c1ccc(N2CCCC(CN3CCCC3)C2)c(NS(=O)(=O)c2ccccc2)c1 (stereo not given) | 643 |
| CNC(=O)[C@@H]1C[C@H](Oc2cccnc2)CN1C(=O)c1ccc2ncccc2c1 | 510 |
| Cc1cc(N2CCN(C(=O)Nc3ccccc3Cl)CC2)nc(N2CCOCC2)n1 | 637 |
| Cc1cc2[nH]c(C(=O)Nc3cc(F)c(F)cc3F)c(CN3CCOCC3)c2s1 | 737 |
| O=C(c1ccc[nH]c1=O)N1CCC(Cn2c(COc3ccccc3)nc3ccccc32)CC1 | 556 |
| Cn1cnc(S(=O)(=O)N2[C@H]3CC[C@@H]2c2cnc(-c4ccc(F)cc4)nc2C3)c1 | 764 |
| Cn1nnc2ccc(-c3noc(-c4cccc(F)c4)n3)cc21 | 1010 |
| C=CCn1c(=O)c2c(nc3n2CC(C)CN3c2cc(C)cc(C)c2)n(C)c1=O (stereo not given) | 1040 |
| Cc1sc(-c2noc(C3CC3)n2)cc1S(=O)(=O)N1CCC(C(=O)NCc2cccs2)CC1 | 983 |
| O=C(NCCc1c[nH]c2ccccc12)c1noc2c1CSc1ccccc1-2 | 1130 |
| COC(=O)c1cnc(N2CCN(c3ccccc3OC)CC2)c2ccccc12 | 1030 |
| CCOc1ccc(-c2cc3c(=O)n(CC(O)c4ccc(C(C)C)cc4)ccn3n2)cc1 (stereo not given) | 1120 |
| Cc1nn(C)c(C)c1CCCN(C)C(=O)c1cc2c(s1)N(C)CCCC2 | 770 |
| O=C(Cc1csc(NC(=O)C2CCCC2)n1)Nc1nc(-c2cccnc2)cs1 | 600 |
| O=C(NCc1ccco1)N1CCOCC1 | 568 |
| O=C(C1CCN(c2ncnc3c2oc2ccccc23)CC1)N1CCN(c2ccccc2)CC1 | 795 |
| COc1ccc(C)cc1NC(=O)c1nc(C2CCC2)oc1C | 1290 |
| CCC1Oc2ccc(S(=O)(=O)N3CCC(C(=O)NC4CCCCCCC4)CC3)cc2NC1=O (stereo not given) | 977 |
| Cc1ccc(S(=O)(=O)N2CCC(n3cnnc3C3CC3)CC2)cc1Cl | 809 |
| COc1cc(NC(=O)C(C)Oc2ccc(=O)n(-c3ccc(F)cc3)n2)cc(OC)c1 (stereo not given) | 794 |
| CN(C(=O)C1=Cc2ccccc2OC=C1)c1ccccc1 | 1020 |
| Cc1c(C(=O)N2CCOCC2)sc2nc(-c3ccccc3)c(NC(C)(C)C)n12 | 778 |
| CCN1CCN(CCNC(=O)c2cc(-c3ccc(C)cc3)cn2C)CC1 | 626 |
| COc1ccc(NC(=O)Nc2ccc(-c3cn4cccnc4n3)cc2)cc1 | 616 |
| COCC(=O)N1CCCn2cc(-c3cccc(C#N)c3)nc21 | 675 |
| Cc1ccc(CNC(=O)C2CCCN2S(=O)(=O)c2cc3c(cc2C)NC(=O)C(C)O3)cc1 (stereo not given) | 824 |
| CCN(CC)c1ccc(NC(=O)c2nc3nc(C)cc(C(F)F)n3n2)cc1 | 598 |

Continued, values first:

| RP-LC retention time [s] | Compound |
| --- | --- |
| 869 | O=C(Cc1csc(NC(=O)c2ccccc2)n1)Nc1ccc(F)c(Cl)c1 |
| 730 | CCCCNc1nc(-c2ccccc2F)nc2ccccc12 |
| 699 | CCCNC(=O)C1CCCN(c2ccc(=O)n(-c3cccc(F)c3)n2)C1 (stereo not given) |
| 708 | CCn1cc(CC(=O)NCc2ccc(F)cc2)c2cccnc21 |
| 967 | O=C(Nc1cnc(N2CCCCCC2)nc1)c1cc(F)ccc1F |
| 1040 | Cc1cc(OCC(=O)N2CCC(C)CC2)nc(-c2ccc(F)cc2)n1 |
| 750 | COc1ccccc1-c1cc(C(=O)N2CCCN(c3ccc(=O)n(-c4ccccc4)n3)CC2)[nH]n1 |
| 861 | CCOc1ccccc1NC(=O)CSc1nccc(N2CCN(c3cc(C)ccc3C)CC2)n1 |
| 677 | Cc1cccc2nnc(N3CCC(C(=O)Nc4ccccc4F)CC3)n12 |
| 872 | CCn1c(CCC(=O)NCc2ccc(F)cc2F)nc2c(C)cccc2c1=O |
| 610 | CN(C)c1ccc(CNC(=O)CCCN2C(=O)CCn3nc(-c4cccn4C)cc32)cc1 |
| 752 | COC(=O)c1sc2ccccc2c1S(=O)(=O)N1CCN(c2ccccn2)CC1 |
| 630 | CN(CCNC(=O)c1ncoc1-c1ccco1)Cc1ccccc1 |
| 552 | Cc1noc(C)c1CCC(=O)N1CC(c2nc3ccccc3[nH]2)C1 |
| 699 | CCc1ccc(Nc2c(C(=O)N3CCC(C)CC3)cnc3nc(C)ccc23)cc1 |
| 855 | O=C(Cn1nc2c3sc(N4CCCCC4)nc3ncn2c1=O)Nc1cccc(Br)c1 |
| 797 | O=C(Nc1cnn(-c2ncncc2N2CCCC2)c1)c1cccc(C(F)(F)F)c1 |
| 686 | Cc1nnc2c(=O)n(CC(=O)NCc3cc(F)cc(F)c3)c3cccnc3n12 |

| RP-LC retention time [s] | Compound |
| --- | --- |
| 819 | Cc1cc2c(=O)n(CC(=O)Nc3cccc(Cl)c3C)ccc2s1 |
| 963 | Cc1cc(C)cc(Oc2nccn3c(=O)n(CC(=O)Nc4ccccc4Cl)nc23)c1 |
| 1140 | O=C(c1cccc(Cl)c1)N1CCc2nc(-c3ccc(Cl)cc3)ncc2C1 |
| 654 | COc1cccc(CNC(=O)N2CCN(Cc3nc4ccccc4o3)CC2)c1 |
| 671 | Cc1ccc(F)cc1NS(=O)(=O)c1cc2n(c1)CCCNC2=O |
| 580 | O=C(NC1CC1)c1ccccc1OCC1CCCN(Cc2ccc3c(c2)CCO3)C1 (stereo not given) |
| 732 | CCNc1nc(C)cc(N2CCN(S(=O)(=O)c3ccccc3C(F)(F)F)CC2)n1 |
| 684 | COCCc1noc(-c2ccc(=O)n(CC(=O)NC3CCCCC3)c2)n1 |
| 883 | Cc1cc(-c2nnc(-c3ccccc3)o2)c(C)n1CC(=O)NC1CCCCC1 |
| 709 | COc1ccc(Cl)cc1NC(=O)CN1CCN(c2ccccc2F)CC1 |
| 1060 | COc1ccccc1NC(=O)c1sc(-c2cn(C)c3ncccc23)nc1C |
| 703 | O=C(Cn1c(=O)c2cccn2c2ccc(F)cc21)NCC1CCCO1 (stereo not given) |
| 722 | CN(C(=O)Cn1cnc2nc3c(cc2c1=O)CCCC3)c1ccccc1F |
| 832 | CCc1ccc(C2=C(C)C(N3CCCN(C(=O)c4ccoc4)CC3)=NS2(=O)=O)cc1 |
| 913 | CCc1ccc(C(=O)N2CCCn3nc(-c4cccs4)cc3C2)cc1 |
| 814 | CCc1nc(OCC(=O)NCc2ccc(SC)cc2)c2ccccc2n1 |
| 792 | Cn1nc(C(=O)NC2CCN(c3cc(-c4ccccc4)[nH]n3)CC2)c2ccccc21 |
